Among the data in patent US9255090B2, “Heterocyclyl derivatives and their use as prostaglandin D2 receptor modulators” (Actelion Pharmaceuticals Ltd., priority 2012, dated 2016) are IC50 values, retold here.

The target of this assay is hCRTH2 receptor (Homo sapiens (Human), UniProt Q9Y5Y4). Description: hCRTH2 receptor membranes radioligand (3H-PGD2) displacement assay. It counts as binding. As to conditions: 3H-PGD2 radioligand displacement, HEK293-hCRTH2 membranes. The essentials: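 HEK293-hCRTH2 membranes, 20 μg/well; 3H-PGD2 added at 2.5 nM; binding buffer 50 mM Tris, 10 mM MnCl2, 1 mM EDTA, pH 7.0; 90 min RT; GF/C filtration, scintillation count. Nonspecific binding: PGD2 at […].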
Sequence of hCRTH2 receptor (Q9Y5Y4 whole entry): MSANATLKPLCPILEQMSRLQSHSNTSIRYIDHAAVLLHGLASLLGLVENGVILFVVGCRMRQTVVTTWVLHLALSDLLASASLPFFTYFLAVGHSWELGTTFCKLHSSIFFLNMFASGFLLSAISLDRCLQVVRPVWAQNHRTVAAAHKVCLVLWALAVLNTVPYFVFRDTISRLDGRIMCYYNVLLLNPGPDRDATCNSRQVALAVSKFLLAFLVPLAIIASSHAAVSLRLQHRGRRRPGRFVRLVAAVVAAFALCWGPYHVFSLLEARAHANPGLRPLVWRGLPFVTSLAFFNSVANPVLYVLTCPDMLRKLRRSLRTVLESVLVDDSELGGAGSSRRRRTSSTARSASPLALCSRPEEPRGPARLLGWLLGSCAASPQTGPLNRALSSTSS
(In general: Displacement assays read how much labelled ligand stays bound in the presence of the test substance.)

On to `O=C(O)COc1ccc(OC(F)(F)F)c(-c2ccc(F)c3c2CN(C(=O)[C@@H]2C[C@H]2c2ccccc2)CC3)c1` [Example 160, {3-[5-Fluoro-2-((1R,2R)-2-phenyl-cyclopropanecarbonyl)-1,2,3,4-tetrahydro-isoquinolin-8-yl]-4-trifluoromethoxy-phenoxy}-acetic acid], for which the IC50 (in general, the concentration needed to halve the response being measured) was 0.67 nM.
The value for `COc1ccc(CC(=O)O)cc1-c1ccc(F)c2c1CN(C(=O)CC1COc3ccccc3C1)CC2` (racemic) [Example 242] was 2.7 nM.
The value for `COc1cccc(CC(=O)O)c1-c1ccc(F)c2c1CN(C(=O)OCc1ccccc1)CC2` [Example 418, 8-(2-Carboxymethyl-6-methoxy-phenyl)-5-fluoro-3,4-dihydro-1H-isoquinoline-2-carboxylic acid benzyl ester] was 352 nM; that for `CCC(Oc1ccc(OC)c(-c2ccc(F)c3c2CN(C(=O)OCc2ccccc2)CC3)c1)C(=O)O` (racemic) [Example 415] was 337 nM; that for `CCC(CC(=O)N1CCc2c(F)ccc(-c3cc(CC(=O)O)ccc3OC)c2C1)c1ccccc1` (racemic) [Example 268] was 63.6 nM.
The value for `CCOc1cc(CC(=O)O)ccc1-c1ccc(F)c2c1CN(C(=O)CC(CC)c1ccccn1)CC2` (racemic) [Example 313] was 7.8 nM; that for `O=C(O)Cc1cccc(-c2ccc(F)c3c2CN(C(=O)OCc2ccccc2)CC3)c1F` [Example 16, 8-(3-Carboxymethyl-2-fluoro-phenyl)-5-fluoro-3,4-dihydro-1H-isoquinoline-2-carboxylic acid benzyl ester] was 25.2 nM.
`COc1ccc(CC(=O)O)cc1-c1ccc(F)c2c1CN(C(=O)C1CCc3cccc(OC)c3C1)CC2` (racemic) [Example 241] displayed an IC50 of 8.3 nM. Compared with the last compound, the IC50 is about 3-fold lower.
`CCOc1cc(CC(=O)O)ccc1-c1ccc(F)c2c1CN(C(=O)OCc1cnccn1)CC2` [Example 386, 8-(4-Carboxymethyl-2-ethoxy-phenyl)-5-fluoro-3,4-dihydro-1H-isoquinoline-2-carboxylic acid pyrazin-2-ylmethyl ester] came in with an IC50 of 3.4 nM.
The value for `COc1ccc(CC(=O)O)cc1-c1ccc(F)c2c1CN(C(=O)[C@H]1C[C@@H]1c1ccccc1)CC2` [Example 81, {3-[5-Fluoro-2-((1S,2S)-2-phenyl-cyclopropanecarbonyl)-1,2,3,4-tetrahydro-isoquinolin-8-yl]-4-methoxy-phenyl}-acetic acid] was 33.1 nM; that for `COc1ccc(CC(=O)O)cc1-c1ccc(F)c2c1CN(C(=O)[C@@H]1CCCc3ccccc31)CC2` [Example 269, {3-[5-Fluoro-2-((R)-1,2,3,4-tetrahydro-naphthalene-1-carbonyl)-1,2,3,4-tetrahydro-isoquinolin-8-yl]-4-methoxy-phenyl}-acetic acid] was 95.7 nM.
The value for `CC(C)(CC(=O)N1CCc2c(F)ccc(-c3cc(CC(=O)O)ccc3OCC(F)(F)F)c2C1)c1ccccc1` [Example 300, [3-[5-Fluoro-2-(3-methyl-3-phenyl-butyryl)-1,2,3,4-tetrahydro-isoquinolin-8-yl]-4-(2,2,2-trifluoro-ethoxy)-phenyl]-acetic acid] was 14.8 nM.
The value for `CCOc1cc(CC(=O)O)ccc1-c1ccc(F)c2c1CN(C(=O)/C=C/c1cnn(C)c1)CC2` [Example 339, (3-Ethoxy-4-{5-fluoro-2-[(E)-3-(1-methyl-1H-pyrazol-4-yl)-acryloyl]-1,2,3,4-tetrahydro-isoquinolin-8-yl}-phenyl)-acetic acid] was 12.7 nM; that for `COc1ccc(C(C)C(=O)O)cc1-c1ccc(F)c2c1CN(C(=O)[C@@H]1C[C@H]1c1ccccc1)CC2` (mixture of isomers) [Example 120, (±)-2-{3-[5-Fluoro-2-((1R,2R)-2-phenyl-cyclopropanecarbonyl)-1,2,3,4-tetrahydro-isoquinolin-8-yl]-4-methoxy-phenyl}-propionic acid] was 8.56 nM.
